Source: patent publication US11117918B2, “Enzyme-directed immunostimulant and uses thereof” (Washington State University, priority 2016, dated 2021)

Key:
β-galactosidase = β-galactosidase (Escherichia coli, UniProt P00722); assay: Conversion of Imiquimod-β-galactopyranoside (6) to Imiquimod by exogenous β-galactosidase, LC-MS/MS; assay type: biochemical, E. coli
Description: (§1) For LC-MS/MS experiments, mobile phase A consisted of 0.05% formic acid and 0.2% acetic acid in water, and mobile phase B comprised 90% acetonitrile, 9.9% water, and 0.1% formic acid. Using a flow rate of 400 μL/min, mobile phase B 5% isocratic for 0.5 min, before gradient to 95% B over 2.2 min, followed by 95% isocratic for 0.1 min. The total chromatographic assay time (including time to equilibrate for the next run) was 4.0 min per sample. Optimized mass spectrometer parameters were as follows: collision gas, 20 psig; curtain gas, 20 psig; ion source gas 1, 60 psig; ion source gas 2, 40 psig; ion spray voltage, 5500 V; desolvation temperature, 600° C.; declustering potential, 70 V; entrance potential, 10 V; collision energy, 50 V; collision cell exit potential, 10 V. The substrate was detected using multiple reaction monitoring mode by monitoring the m/z fragmentation from 597.8 to 241.2 Da for (6) and the Imiquimod product was monitored for 241.2 to 185.1 Da fragmentation.
To confirm the chemical identity of Imiquimod liberated by β-gal-mediated conversion of (6), an end-point assay was performed using 1 U of β-gal in 200 μL of 10 μm (6) incubated for 16 h (37° C., 5% CO2). To stop the reaction, 50 μL AO Quench Internal Standard (20 μg/mL 2-methyl-4(3H)-quinazolinone in 1 m formic acid) was added to the reaction. This aliquot was compared to a 200 μL sample of 10 μm (6) without β-gal enzyme.
To determine the conversion of Imiquimod-β-Galactopyranoside (6) to Imiquimod in the presence of β-gal over time for exogenous experiments, aliquots (200 μL) of (6) at a concentration of 5 μm in DPBS were incubated with β-gal (1 U, 37° C., 5% CO2). To stop the reaction at the specified time points (0, 1, 2 min), 50 μL AO Quench Internal Standard (20 μg/mL 2-methyl-4(3H)-quinazolinone in 1 m formic acid) was added to each individual reaction. Depletion of (6) was measured by LC-MS/MS for each time point. […] Similar to above, aliquots of (6) for various time points (0, 0.25, 0.5, 1, 2, 3 h) were tested for conversion to immunostimulant by exogenous β-galactosidase.
β-galactosidase from E. coli was diluted with sterile Dulbecco's Phosphate Buffer Saline (DPBS) to an initial concentration of 5,000 U/mL. Aliquots of this stock were diluted with additional DPBS to a concentration of 500 U/mL and 5 mU/mL. Because of the E. coli source for β-galactosidase, samples were filtered with a sterile 0.2 μm syringe filter to guard against potential residual bacteria. Absence of bacteria was confirmed prior to use; filtered samples were plated on an agar plate and incubated for 3 days (37° C., 5% CO2). No bacterial growth was observed from the filtered enzyme.

[1] = test system: β-galactosidase-enriched B16 melanoma cells; assay: Conversion of (6) to Imiquimod by β-galactosidase-enriched B16 cells, LC-MS/MS; assay type: cell-based, murine
Description: as §1
Murine melanoma cells (B16-F10, 5×10^6 cells) were removed from cell culture and pelletized via centrifuge (200 RCF, 0° C., 10 min). The supernatant was removed from the cell pellet, and cells were suspended in 1.5 mL of complete culture media (10% HI-FBS in DMEM) or preservative free FACS solution (10% HI-FBS in DPBS) that was pre-chilled on ice. Next, 15 μL of 0.5 mg/mL biotinylated α-gp-100 antibody (Abcam, UK) was added to the suspended cells, and the suspension was incubated on ice for 30 min with occasional shaking. Cells were then pelletized (200 RCF, 10 min, 0° C.) and washed 4 times each with 10 mL of chilled preservative free FACS solution (10% HI-FBS in DPBS). Washing Procedure: The cell pellet was suspended in 10 mL of FACS and centrifuged (200 RCF, 0° C., 10 min). Supernatant was removed from pellet, and the cells were suspended in subsequent chilled FACS solution for 1 min with constant shaking before this procedure was repeated. […] Enzyme enrichment (20-350 pU/cell) was quantified as average increase in enzymatic activity per cell determined by NPG colorimetric assay.

[2] = test system: AT3B-1 prostate cancer cell line (overexpresses P-glycoprotein 1); assay: AT3B-1 cells treated with pro-immunostimulant, absorbance at 420 nm; assay type: cell-based, rat; conditions: 10 mM dose, 2−200×10^4 cells/well, 72 h
Description: To evaluate the disclosed compounds for their effect against multidrug-resistant cells and possible pathogen infection, compound 6 was exposed to a multidrug-resistant AT3B-1 prostate cancer cell line that is known to overexpress P-glycoprotein 1 (P-gp). AT3B-1 cells were plated in an optically clear bottomed 96-well plate at a range of densities (2−200×10^4 cells/well) in 180 μL of complete cell media. Each cell density was tested in triplicate with and without a 10 mM dose of compound 6. For wells with compound 6, 20 μL of a 100 mM stock solution of compound 6 in DMSO was used. As a control experiment, compound 6 was converted by exogenous α-Mannosidase (0.1 U/mL) in triplicate. The plate was incubated (37° C., 5% CO2) for 72 h before measuring the absorbance at 420 nm.
The AT3B-1 cell line (ATCC CRL-2375, rat prostate epithelial malignant carcinoma) were grown in complete culture media composed of Roswell Park Memorial Institute (RPMI) 1640 medium with 4.5 g/L glucose, 2 mM L-glutamine, 10,000 U/mL penstrep, 10 mM HEPES and supplemented with 10% HI-FBS and 1 μM doxorubicin. Media was changed every 3-4 days omitting the doxorubicin, and cells were passaged once per week. Passaging involved changing media, counting, and seeding 3×10^5 cells in 35 mL of new complete media in a new T-175 culture flask.

β-galactosidase, sequence (P00722 2-1024): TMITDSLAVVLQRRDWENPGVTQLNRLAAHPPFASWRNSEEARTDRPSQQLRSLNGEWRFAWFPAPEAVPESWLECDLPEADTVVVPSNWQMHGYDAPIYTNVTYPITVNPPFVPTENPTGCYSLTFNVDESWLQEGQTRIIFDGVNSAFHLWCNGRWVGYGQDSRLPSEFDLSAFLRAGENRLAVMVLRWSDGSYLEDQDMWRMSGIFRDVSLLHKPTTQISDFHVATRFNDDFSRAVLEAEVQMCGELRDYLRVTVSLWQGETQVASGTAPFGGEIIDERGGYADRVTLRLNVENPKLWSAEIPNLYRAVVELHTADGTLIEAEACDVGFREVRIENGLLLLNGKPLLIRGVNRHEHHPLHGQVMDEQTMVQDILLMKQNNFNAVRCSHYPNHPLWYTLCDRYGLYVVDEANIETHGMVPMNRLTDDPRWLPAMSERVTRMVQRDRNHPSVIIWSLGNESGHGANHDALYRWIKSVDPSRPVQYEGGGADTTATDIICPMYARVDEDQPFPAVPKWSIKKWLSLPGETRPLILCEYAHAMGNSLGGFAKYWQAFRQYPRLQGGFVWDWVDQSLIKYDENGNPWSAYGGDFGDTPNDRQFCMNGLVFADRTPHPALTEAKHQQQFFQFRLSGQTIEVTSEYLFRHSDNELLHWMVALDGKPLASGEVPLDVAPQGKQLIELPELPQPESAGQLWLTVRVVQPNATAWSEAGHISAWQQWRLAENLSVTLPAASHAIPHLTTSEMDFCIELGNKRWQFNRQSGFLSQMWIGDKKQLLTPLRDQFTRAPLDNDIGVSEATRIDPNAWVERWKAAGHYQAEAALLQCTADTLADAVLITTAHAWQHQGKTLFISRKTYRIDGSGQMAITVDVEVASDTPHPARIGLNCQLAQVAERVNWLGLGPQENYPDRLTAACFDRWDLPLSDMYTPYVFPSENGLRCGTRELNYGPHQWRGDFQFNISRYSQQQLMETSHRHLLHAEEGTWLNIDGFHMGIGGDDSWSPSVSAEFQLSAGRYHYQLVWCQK

## 4-Imiquimod-2-nitrophenyl-galactopyranoside [compound 6]
β-galactosidase; 5 μm in DPBS, β-gal 1 U, 0, 1, 2 min
  depletion of (6): rapid depletion
β-galactosidase; 10 μm (6) without β-gal enzyme
  stability without β-gal enzyme (no residual Imiquimod observed): stable
β-galactosidase; exogenous β-galactosidase 5 mU, over 3 h
  conversion to Imiquimod (depletion of (6) and formation of Imiquimod): near quantitative conversion
β-galactosidase; β-galactosidase 1 U, 2 nmol (200 μL of 10 μm), 16 h, 37° C.
  conversion into Imiquimod: quantitative conversion
[1]; β-galactosidase-enriched B16 cells (5 mU), over 3 h
  conversion of the compound: quantitative conversion
[1]; β-galactosidase-enriched B16 cells, 1×10^5 cells/well, 35 mU/well, 24 h
  conversion to Imiquimod: near quantitative conversion
[1]; β-galactosidase-enriched B16 cells, after 3 h
  conversion into Imiquimod: > 36%
[2]
  interaction with P-gp: interacting with P-gp
